Results published in ChEMBL document CHEMBL1125650, “Relationships between the structure of taxol analogues and their antimitotic activity” (J Med Chem, 1991).
Converted amounts (≈) assume the structure as drawn.

Assays:
P388 = test: The concentration required to 50% inhibition of the P388 leukemic cell proliferation; format: functional, cell-based; conditions: Mus musculus
[1] = Ratio of the concentration of compound leading to a 50% inhibition of the rate of pig brain microtubule disassembly to that of compound 13a was determined; format: functional
Sus scrofa = species on record: Sus scrofa; test: Ratio of the concentration leading to a 50% inhibition of the rate of pig brain microtubule disassembly to that of taxol (0.4 uM) was determined; format: functional
[2] = Cytotoxicity was measured as ratio of its IC50 value to that of compound 13a; format: functional

IC50 (P388) [µg/mL] | SMILES | Ratio [1] | Ratio (Sus scrofa) | Ratio [2]
> 10 | CC(=O)O[C@@]12CO[C@@H]1C[C@H](O)[C@@]1(C)C(=O)[C@H](O)C3=C(C)[C@@H](OC(=O)[C@@H](O)[C@H](NC(=O)OC(C)(C)C)c4ccccc4)C[C@@](O)([C@@H](OC(=O)c4ccccc4)[C@H]21)C3(C)C | 60 | 30 | >77
7 (≈ 8.2 µM) | CC(=O)O[C@H]1C(=O)[C@@]2(C)[C@H]([C@H](OC(=O)c3ccccc3)[C@]3(O)C[C@H](OC(=O)[C@@H](O)[C@H](NC(=O)c4ccccc4)c4ccccc4)C(C)=C1C3(C)C)[C@]1(OC(C)=O)CO[C@@H]1C[C@@H]2O | 9 | 4.5 | 54
0.12 (≈ 0.126 µM) | CC(=O)O[C@@]12CO[C@@H]1C[C@H](OC(=O)C(N)Cc1ccccc1)[C@@]1(C)C(=O)[C@H](O)C3=C(C)[C@@H](OC(=O)C(O)C(NC(=O)OC(C)(C)C)c4ccccc4)C[C@@](O)([C@@H](OC(=O)c4ccccc4)[C@H]21)C3(C)C (stereo partly specified) | 2 | 1 | 1
> 4 | CC(=O)O[C@@]12CO[C@@H]1C[C@H](O)[C@@]1(C)C(=O)[C@H](O)C3=C(C)[C@@H](OC(=O)C(O)C(NC(=O)c4ccc(S(=O)(=O)O)cc4)c4ccccc4)C[C@@](O)([C@@H](OC(=O)c4ccccc4)[C@H]21)C3(C)C (stereo partly specified) | 11 | 5.5 | >31
